The test system of one assay is PC-3 cells. Kind of assay: In vitro GRPR specificity assay (uptake with or without NOTA-PEG2-RM26 block). The settings on record: 1 nM radiopeptide, 1 h at 37 °C, block with 1 µM NOTA-PEG2-RM26, n = 3. It is filed as cell-based, human. How it is done:
After discarding the medium, the cells were washed with cold (4 °C) phosphate-buffered saline containing 1% w/v bovine serum albumin (PBS/BSA). The radiopeptides (Cf = 1 nM in 1 mL PBS/BSA) were added to all wells. A subset of wells was also treated with an excess of unlabeled GRPR-binding peptide NOTA-PEG2-RM26 (Bjäreback et al. [2025]) (Cf = 1 µM in 1 mL PBS/BSA) to block GRPR. After incubation for 1 h at 37 °C, the supernatant was removed, and the cells were washed and then collected by treating them with 1 M NaOH. The activity of the collected samples was measured with the gamma counter. This assay was performed in triplicate for each radiopeptide.

In a further assay the target is T1, GRPR (Homo sapiens, UniProt P30550).
T1 construct: 3 × 10^6 PC-3 cells were seeded in 100 mm Petri dishes; host or cells: PC-3 human prostate cancer cells
Details: method as in PMID 19480415. The conditions noted are these: LigandTracer, PC-3 cells, previously published data, cited from earlier work.

T1 sequence (P30550 whole entry): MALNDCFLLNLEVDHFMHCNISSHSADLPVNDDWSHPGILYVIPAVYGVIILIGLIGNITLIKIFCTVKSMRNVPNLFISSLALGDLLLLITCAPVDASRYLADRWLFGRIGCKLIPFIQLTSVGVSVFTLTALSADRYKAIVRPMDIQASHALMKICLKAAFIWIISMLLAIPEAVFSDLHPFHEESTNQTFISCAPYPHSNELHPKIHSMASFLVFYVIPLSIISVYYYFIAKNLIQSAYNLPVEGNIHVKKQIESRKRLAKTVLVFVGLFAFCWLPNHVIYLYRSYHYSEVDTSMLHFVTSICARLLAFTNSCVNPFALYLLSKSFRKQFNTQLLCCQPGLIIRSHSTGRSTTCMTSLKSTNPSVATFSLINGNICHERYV

For `CC(C)C[C@H](NC(=O)C[C@H](O)[C@H](CC(C)C)NC(=O)[C@H](Cc1c[nH]cn1)NC(=O)CN(C)C(=O)[C@@H](NC(=O)[C@H](C)NC(=O)[C@H](Cc1c[nH]c2ccccc12)NC(=O)[C@H](CCC(N)=O)NC(=O)[C@@H](Cc1ccccc1)NC(=O)CN1CCC(NC(=O)COCCOCCNC(=O)CN2CCN(CC(=O)O)CCN(CC(=O)O)CCN(CC(=O)O)CC2)CC1)C(C)C)C(N)=O` [[^177Lu]Lu-PKB1, metal not drawn], the “in vitro binding specificity” value with PC-3 cells is “GRPR-mediated activity uptake”.
For the compound “DOTAGA-PEG2-Pip-[Sar^11]RM26 [[^177Lu]Lu-AU-RM26-M2] [parent compound, AU-RM26-M2 (DOTAGA-PEG2-Pip-[Sar^11]RM26) labeled with Lu-177, previously reported by the authors]”, on GRPR (1 and 5 nM), the ka1 is 184000 M⁻¹ s⁻¹, the ka2 was 1.08e+06 M⁻¹ s⁻¹, the kd1 is recorded as 3.53 × 10^–5 1/s and the kd2 is 5.94 × 10^–2 1/s. Also, the “Bmax1 / Bmax2” value at GRPR is listed as 0.16.

Source of the values: article PMC12615863, “Improving GRPR-targeting peptides for radiotheranostics application: insights from chelator modifications and α-methyl-L tryptophan substitution” (EJNMMI Radiopharmacy and Chemistry, 2025).
